Experimental data reported in patent publication US6599860B1, “Herbicidal halogenalkyl-substituted 3-(4,5-dihydroisoxazol-3-yl)-benzoyl-cyclohexenones” (BASF Aktiengesellschaft, priority 1999, dated 2003).

## Cc1c(C(=O)C2C(=O)C3CCC(C3)C2=O)ccc(S(C)(=O)=O)c1C1=NOC(CCl)C1 (stereo not shown) [Compound 2.2, 3-[2-Methyl-3-(5-chloromethyl-4,5-dihydroisoxazol-3-yl)-4-methyl-sulfonylbenzoyl]bicyclo[3.2.1]octane-2,4-dione]
  melting point: 98 to 103 °C
